Source: US12617831B2 (UNIVERSITE D'ANGERS, priority 2019, dated 2026)
Ends that are not written are not given here.

Tests used:
[1] = tested on: MC3T3-E1 subclone 4 cells; assay type: cell-based, murine; details: for Interpretation of combination index on collagen maturity at EC50: 69 pM; for Interpretation of combination index on collagen maturity at EC50 / Interpretation of combination index on collagen maturity at […] EC50: t-test vs additivity 1.0±0.15; for Interpretation of combination index on collagen maturity at […] EC50: 100 pM; for Emax for dose-effect curves on collagen maturity: MC3T3-E1, day 14; for effect on collagen maturity index: MC3T3-E1, vs cultures without peptide (FIG. 20); for Cl at […] EC50 (combination index on collagen maturity): at […] mean EC50 of GIP and GLP-2, 100 pM; for Cl at […] EC50 (combination index on collagen maturity) / Cl at EC50 (combination index on collagen maturity): Chou & Talalay, mean ± SD; for Cl at EC50 (combination index on collagen maturity): at mean EC50 of GIP and GLP-2, 69 pM
Protocol: Briefly, MC3T3-E1 subclone 4 cells have been grown and propagated in α-MEM supplemented with 5% fetal bovine serum (FBS), 5% bovine calf serum (BCS), 100 U/mL penicillin, and 100 μg/mL streptomycin in a humidified atmosphere enriched with 5% CO2 at 37° C. […] This day was considered as day 1. The differentiation medium was replenished every two days. […] Cultures were rinsed at least six times with milliQ water, fixed in absolute ethanol, scrapped off the culture dish and transferred onto BaF2 windows where they were air-dried. Integrity of the collagen extracellular matrix was verified by comparing the obtained Fourier transform infrared spectrum with those of commercial collagen. Spectral analysis was performed using a Bruker Vertex 70 spectrometer (Bruker optics, Ettlingen, Germany) interfaced with a Bruker Hyperion 3000 infrared microscope equipped with a standard single element Mercury Cadmium Telluride (MCT) detector. Calibration of the infrared spectrometer is done once a week with a polystyrene film standard (Bruker optics). Infrared spectra were recorded at a resolution of 4 cm^-1, with an average of 32 scans in transmission mode. Background spectral images were collected under identical conditions from the same BaF2 windows at the beginning and end of each experiment to ensure instrument stability. At least 5 spectra were acquired for each condition and analyzed with a lab-made routine script (version 2.0) in Matlab R2016b (The Mathworks, Natick, MA). […] For GIP and GLP-2 dataset, the inventors used the collagen maturity data previously acquired and analyzed. First of all, collagen maturity obtained in control cultures, i.e. in the absence of double GIP/GLP-2 analogues, were averaged and subtracted to the all dataset. […] For each concentration of peptide, the mean, SD and number of events were computed. […] The GraphPad Prism analysis consisted in: […] Statistical Analysis […] Data are represented as mean±SD.

[2] = tested on: Murine Raw 264.7 cells; assay type: cell-based; details: for IC50 computed from curve fitting of osteoclastogenesis vs. peptide concentration: Raw 264.7, RANKL 10 ng/ml, 110 h, * values determined from previous experiments; for Emax, maximum inhibitory effect on osteoclastogenesis: Raw 264.7, * data obtained in previous experiments; for Cl at EC50 of GIP and GLP-2 (combination index for osteoclastogenesis): at 36.8 pM, Chou & Talalay; for Interpretation of combination index for osteoclastogenesis: at EC50 of GIP and GLP-2, 36.8 pM
Protocol: Murine Raw 264.7 cells were grown and expanded in propagation medium containing Dulbecco's modified Eagle medium (DMEM-Gibco) supplemented with 10% fetal bovine serum (FBS-Lonza), 100 U/mL penicillin and 100 μg/mL streptomycin (Gibco) in a humidified atmosphere enriched with 5% CO2 at 37° C. The first passage after thawing Raw 264.7 cells was considered as passage 1. Cells were used up to passage 8. […] Cultures were rinsed three times in distilled water and the residual activity was inhibited by 4% NaF (Sigma-Aldrich) for 30 min. Cells were then rinsed in distilled water and allowed to dry. TRAcP positive cells, with more than three nuclei, were identified as osteoclasts. The number of newly generated osteoclasts was assessed using light microscopic examination by a histologist that was blinded to the treatment intervention. […] For each concentration of peptide, the mean, SD and number of events were computed.

[3] = tested on: Murine MC3T3-E1 cells; assay: Collagen maturity assay in MC3T3-E1 cultures (Example 2); assay type: cell-based; details: MC3T3-E1 cultures (FIGS. 5-7)
Protocol: At confluence, the propagation medium was replaced by the differentiation medium containing αMEM supplemented with 5% FBS, 5% bovine calf serum, 100 U/mL penicillin, 100 μg/mL streptomycin, 50 μg/ml ascorbic acid and various concentrations of analogues. This day was considered as day 1. The differentiation medium was replenished every two days. […] Cultures were rinsed at least six times with milliQ water, fixed in absolute ethanol, scrapped off the culture dish and transferred onto BaF2 windows where they were air-dried. Integrity of the collagen extracellular matrix was verified by comparing the obtained Fourier transform infrared spectrum with those of commercial collagen. Spectral analysis was performed using a Bruker Vertex 70 spectrometer (Bruker optics, Ettlingen, Germany) interfaced with a Bruker Hyperion 3000 infrared microscope equipped with a standard single element Mercury Cadmium Telluride (MCT) detector. Infrared spectra were recorded at a resolution of 4 cm^−1, with an average of 32 scans in transmission mode. Background spectral images were collected under identical conditions from the same BaF2 windows at the beginning and end of each experiment to ensure instrument stability. At least 20 spectra were acquired for each condition and analyzed with a lab-made routine script in Matlab R2016b (The Mathworks, Natick, MA).

EC50 [1] | Interpretation of combination index on collagen maturity at EC50 [1] | Interpretation of combination index on collagen maturity at […] EC50 [1] | Cl at […] EC50 (combination index on collagen maturity) [1] | Cl at EC50 (combination index on collagen maturity) [1] | EC50 [2] | Compound | Emax for dose-effect curves on collagen maturity [1] | effect on collagen maturity index [1] | IC50 computed from curve fitting of osteoclastogenesis vs. peptide concentration [2] | Emax, maximum inhibitory effect on osteoclastogenesis [2] | Cl at EC50 of GIP and GLP-2 (combination index for osteoclastogenesis) [2] | Interpretation of combination index for osteoclastogenesis [2] | profile of collagen maturity versus concentration [3]
0.0086 ± 0.0069 nM | Additive (CI 0.85-1.15: additive) | Antagonism (CI 1.45-3.3: antagonism) | 2.30 ± 1.01 | 1.53 ± 1.10 | 1.48 nM | HAEGTFISDYSIAMDKLAARDFINWLIQTKITD-NH2 (C-terminus assumed) [Co-7] | 115.6% | very modest | 1.48 nM | 58.05% | 271.28 | Very strong antagonism (CI>10: very strong antagonism) | 
0.0194 nM | Additive (CI 0.85-1.15: additive) | Additive (CI 0.85-1.15: additive) | 1.79 ± 2.20 | 1.29 ± 1.65 |  | CC[C@H](C)[C@H](NC(=O)[C@H](Cc1ccccc1)NC(=O)[C@H](CC(=O)O)NC(=O)[C@H](CCCNC(=N)N)NC(=O)[C@H](C)NC(=O)[C@H](C)NC(=O)[C@H](CC(C)C)NC(=O)[C@H](CC(N)=O)NC(=O)[C@H](CC(=O)O)NC(=O)[C@H](CC(C)C)NC(=O)[C@@H](NC(=O)[C@@H](NC(=O)[C@H](CO)NC(=O)[C@H](Cc1ccc(O)cc1)NC(=O)[C@H](CC(=O)O)NC(=O)[C@H](CO)NC(=O)[C@@H](NC(=O)[C@H](Cc1ccccc1)NC(=O)[C@@H](NC(=O)CNC(=O)[C@H](CC(=O)O)NC(=O)[C@H](C)NC(=O)[C@@H](N)Cc1c[nH]cn1)[C@@H](C)O)[C@@H](C)CC)[C@@H](C)O)[C@@H](C)CC)C(=O)N[C@@H](CC(N)=O)C(=O)N[C@@H](Cc1c[nH]c2ccccc12)C(=O)N[C@@H](CC(C)C)C(=O)N[C@H](C(=O)N[C@@H](CCC(N)=O)C(=O)N[C@H](C(=O)N[C@@H](CCCCN)C(=O)N[C@H](C(=O)N[C@H](C(=O)N[C@@H](CC(=O)O)C(N)=O)[C@@H](C)O)[C@@H](C)CC)[C@@H](C)O)[C@@H](C)CC [Co-3] | 121.8% | very modest |  | 37.88% | 48.00 | Very strong antagonism (CI>10: very strong antagonism) | 
 |  |  |  |  |  | CSCC[C@H](NC(=O)[C@H](CC(=O)O)NC(=O)[C@H](CO)NC(=O)[C@@H](NC(=O)[C@H](Cc1ccccc1)NC(=O)[C@H](CO)NC(=O)CNC(=O)[C@H](CCC(=O)O)NC(=O)CNC(=O)[C@@H](N)Cc1c[nH]cn1)C(C)C)C(=O)N[C@@H](CO)C(=O)N[C@H](C(=O)N[C@H](C(=O)N[C@@H](CC(C)C)C(=O)N[C@@H](CC(=O)O)C(=O)N[C@@H](CCCCN)C(=O)N[C@@H](CC(C)C)C(=O)N[C@@H](C)C(=O)N[C@@H](C)C(=O)N[C@@H](CCCNC(=N)N)C(=O)N[C@@H](CC(=O)O)C(=O)N[C@@H](Cc1ccccc1)C(=O)N[C@H](C(=O)N[C@@H](CC(N)=O)C(=O)N[C@@H](Cc1c[nH]c2ccccc12)C(=O)N[C@@H](CC(C)C)C(=O)N[C@@H](CC(C)C)C(=O)N[C@@H](CCC(N)=O)C(=O)N[C@H](C(=O)N[C@@H](CCCCN)C(N)=O)[C@@H](C)O)C(C)C)C(C)C)C(C)C [GL-0004] |  |  |  |  |  |  | biphasic profile
 |  |  |  |  |  | CC[C@H](C)[C@H](NC(=O)[C@H](CO)NC(=O)[C@H](CCSC)NC(=O)[C@H](CC(=O)O)NC(=O)[C@H](CO)NC(=O)[C@@H](NC(=O)[C@H](Cc1ccccc1)NC(=O)[C@H](CO)NC(=O)CNC(=O)[C@H](CCC(=O)O)NC(=O)CNC(=O)[C@@H](N)Cc1c[nH]cn1)C(C)C)C(=O)N[C@H](C(=O)N[C@@H](CC(C)C)C(=O)N[C@@H](CC(=O)O)C(=O)N[C@@H](CCCCN)C(=O)N[C@@H](CC(C)C)C(=O)N[C@@H](C)C(=O)N[C@@H](C)C(=O)N[C@@H](CCCNC(=N)N)C(=O)N[C@@H](CC(=O)O)C(=O)N[C@@H](Cc1ccccc1)C(=O)N[C@H](C(=O)N[C@@H](CC(N)=O)C(=O)N[C@@H](Cc1c[nH]c2ccccc12)C(=O)N[C@@H](CC(C)C)C(=O)N[C@@H](CC(C)C)C(=O)N[C@@H](CCC(N)=O)C(=O)N[C@H](C(=O)N[C@@H](CCCCN)C(N)=O)[C@@H](C)O)C(C)C)C(C)C [GL-0002] |  |  |  |  |  |  | biphasic profile
0.0229 nM | Additive (CI 0.85-1.15: additive) | Additive (CI 0.85-1.15: additive) | 389.0 ± 864 | 277.7 ± 617.4 | 0.0324 nM | CC[C@H](C)[C@H](NC(=O)[C@H](Cc1ccccc1)NC(=O)[C@H](CC(=O)O)NC(=O)[C@H](CCCNC(=N)N)NC(=O)[C@H](C)NC(=O)[C@H](C)NC(=O)[C@H](CC(C)C)NC(=O)[C@H](CC(N)=O)NC(=O)[C@H](CC(=O)O)NC(=O)[C@H](CC(C)C)NC(=O)[C@@H](NC(=O)[C@@H](NC(=O)[C@H](CO)NC(=O)[C@H](Cc1ccc(O)cc1)NC(=O)[C@H](CC(=O)O)NC(=O)[C@H](CO)NC(=O)[C@@H](NC(=O)[C@H](Cc1ccccc1)NC(=O)[C@@H](NC(=O)CNC(=O)[C@H](CC(=O)O)NC(=O)[C@H](C)NC(=O)[C@@H](N)Cc1c[nH]cn1)[C@@H](C)O)[C@@H](C)CC)[C@@H](C)O)[C@@H](C)CC)C(=O)N[C@@H](CC(N)=O)C(=O)N[C@@H](Cc1c[nH]c2ccccc12)C(=O)N[C@@H](CC(C)C)C(=O)N[C@H](C(=O)N[C@@H](CCC(N)=O)C(=O)N[C@H](C(=O)N[C@@H](CCCCN)C(=O)NCC(=O)N[C@@H](CCCCN)C(=O)N[C@@H](CCCCN)C(N)=O)[C@@H](C)O)[C@@H](C)CC [Co-19] | 118.1% | very modest | 0.0324 nM | 62.36% | 1.94 | Antagonism (CI 1.45-3.3: antagonism) | 
 |  |  |  |  |  | CC[C@H](C)[C@H](NC(=O)[C@H](CO)NC(=O)[C@H](CCSC)NC(=O)[C@H](CC(=O)O)NC(=O)[C@H](CO)NC(=O)CNC(=O)[C@H](Cc1ccccc1)NC(=O)[C@H](CO)NC(=O)CNC(=O)[C@H](CCC(=O)O)NC(=O)CNC(=O)[C@@H](N)Cc1c[nH]cn1)C(=O)N[C@@H](C)C(=O)N[C@@H](CC(C)C)C(=O)N[C@@H](CC(=O)O)C(=O)N[C@@H](CCCCN)C(=O)N[C@@H](CC(C)C)C(=O)N[C@@H](C)C(=O)N[C@@H](C)C(=O)N[C@@H](CCCNC(=N)N)C(=O)N[C@@H](CC(=O)O)C(=O)N[C@@H](Cc1ccccc1)C(=O)N[C@H](C(=O)N[C@@H](CC(N)=O)C(=O)N[C@@H](Cc1c[nH]c2ccccc12)C(=O)N[C@@H](CC(C)C)C(=O)N[C@@H](CC(C)C)C(=O)N[C@@H](CCC(N)=O)C(=O)N[C@H](C(=O)N[C@@H](CCCCN)C(=O)N[C@H](C(=O)N[C@H](C(=O)N[C@@H](CC(=O)O)C(=O)NCC(=O)N[C@@H](C)C(=O)N[C@@H](C)C(=O)N[C@@H](CC(=O)O)C(=O)N[C@@H](CC(=O)O)C(=O)N[C@@H](CC(=O)O)C(=O)N[C@@H](CC(=O)O)C(=O)N[C@@H](CC(=O)O)C(=O)N[C@@H](CC(=O)O)C(N)=O)[C@@H](C)O)[C@@H](C)CC)[C@@H](C)O)C(C)C [GL-0001-Tag] |  |  |  |  |  |  | biphasic profile
